Measured values as given in ChEMBL document CHEMBL4376829, “Discovery and biological evaluation of vinylsulfonamide derivatives as highly potent, covalent TEAD autopalmitoylation inhibitors” (Eur J Med Chem, 2019).
The source made the active and inactive calls. No cut-off for these calls is given here.

How the values were obtained:
[1] = molecular target: Protein-tyrosine kinase 6 (Homo sapiens) (UniProt Q13882); assay: Inhibition of full-length recombinant human BRK at 10 uM using poly(Glu, Tyr) 4:1 as substrate measured after 40 mins in presence of [gamma33P]ATP by scintillation counting method relative to control
Chain of Protein-tyrosine kinase 6 (Homo sapiens) (Q13882 whole entry, looked up, the tested form may be a part): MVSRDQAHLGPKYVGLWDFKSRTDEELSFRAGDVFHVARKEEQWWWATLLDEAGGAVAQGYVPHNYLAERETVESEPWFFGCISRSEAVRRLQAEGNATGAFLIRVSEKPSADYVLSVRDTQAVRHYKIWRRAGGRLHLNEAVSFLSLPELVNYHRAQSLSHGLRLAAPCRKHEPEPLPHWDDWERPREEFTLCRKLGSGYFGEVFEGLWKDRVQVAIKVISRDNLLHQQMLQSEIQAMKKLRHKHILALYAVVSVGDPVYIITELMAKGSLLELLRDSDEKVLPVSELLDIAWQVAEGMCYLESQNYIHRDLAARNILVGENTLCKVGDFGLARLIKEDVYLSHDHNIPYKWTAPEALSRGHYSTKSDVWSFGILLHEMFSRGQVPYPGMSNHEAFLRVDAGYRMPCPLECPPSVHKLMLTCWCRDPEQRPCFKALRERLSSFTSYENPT

[2] = molecular target: T1, Transcriptional enhancer factor TEF-3 (Homo sapiens, UniProt Q15561); assay: Inhibition of N-terminal His6 tagged human TEAD4-YBD (217 to 434 residues) expressed in Escherichia coli C43 (DE3) cells assessed as reduction in autopalmitoylation at 800 nM preincubated for 2 hrs followed by palmitoyl alkyne-coenzyme A addition and measured after 30 mins by immunoblot analysis relative to control
T1 sequence (Q15561 whole entry, the tested form may be a part): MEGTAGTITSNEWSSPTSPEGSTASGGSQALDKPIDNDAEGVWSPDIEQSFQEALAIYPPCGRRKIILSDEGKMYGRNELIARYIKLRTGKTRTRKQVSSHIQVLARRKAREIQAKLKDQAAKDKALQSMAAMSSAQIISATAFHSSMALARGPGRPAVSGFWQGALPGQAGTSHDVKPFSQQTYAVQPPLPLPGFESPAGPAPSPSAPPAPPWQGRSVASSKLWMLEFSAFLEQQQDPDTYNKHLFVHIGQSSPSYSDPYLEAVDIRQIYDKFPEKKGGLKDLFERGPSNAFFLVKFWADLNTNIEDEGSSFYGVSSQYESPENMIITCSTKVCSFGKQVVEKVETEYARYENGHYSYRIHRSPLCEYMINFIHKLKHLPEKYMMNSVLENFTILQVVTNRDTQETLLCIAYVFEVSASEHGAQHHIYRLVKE

Homo sapiens [3] = species on record: Homo sapiens; assay: Inhibition of full length recombinant human PRAK R291E mutant at 10 uM using KKLRRTLSVA as substrate after 40 mins in presence of [gamma33P]ATP by scintillation counting method relative to control
[4] = molecular target: Serine/threonine-protein kinase 24 (Homo sapiens) (UniProt Q9Y6E0); assay: Inhibition of recombinant human MST3 (1 to 304 residues) at 10 uM using ERMRPRKRQGSVRRRV as substrate measured after 40 mins in presence of [gamma33P]ATP by scintillation counting method relative to control
Chain of Serine/threonine-protein kinase 24 (Homo sapiens) (Q9Y6E0 whole entry, looked up, the tested form may be a part): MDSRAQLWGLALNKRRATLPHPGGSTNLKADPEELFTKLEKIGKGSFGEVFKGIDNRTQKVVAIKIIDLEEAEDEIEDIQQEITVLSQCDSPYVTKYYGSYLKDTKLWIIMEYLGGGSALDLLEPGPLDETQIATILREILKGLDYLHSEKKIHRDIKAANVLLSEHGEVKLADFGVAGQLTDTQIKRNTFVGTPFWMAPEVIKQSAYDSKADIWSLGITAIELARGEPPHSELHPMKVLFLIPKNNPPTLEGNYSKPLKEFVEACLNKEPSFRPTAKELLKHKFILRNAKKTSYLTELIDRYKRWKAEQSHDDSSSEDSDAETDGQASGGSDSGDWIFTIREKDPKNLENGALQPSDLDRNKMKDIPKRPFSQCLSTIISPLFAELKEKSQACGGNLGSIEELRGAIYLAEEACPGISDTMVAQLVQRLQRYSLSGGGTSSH

[5] = molecular target: Leukocyte tyrosine kinase receptor (Homo sapiens) (UniProt P29376); assay: Inhibition of recombinant human LTK (450 to end residues) at 10 uM using GEEPLYWSFPAKKK as substrate measured after 40 mins in presence of [gamma33P]ATP by scintillation counting method relative to control
[6] = molecular target: Protein arginine N-methyltransferase 1 (Homo sapiens) (UniProt Q99873); assay: Inhibition of human PRMT1 at 10 uM after 1 hr by radioisotope-based assay relative to control
Chain of Protein arginine N-methyltransferase 1 (Homo sapiens) (Q99873 whole entry, looked up, the tested form may be a part): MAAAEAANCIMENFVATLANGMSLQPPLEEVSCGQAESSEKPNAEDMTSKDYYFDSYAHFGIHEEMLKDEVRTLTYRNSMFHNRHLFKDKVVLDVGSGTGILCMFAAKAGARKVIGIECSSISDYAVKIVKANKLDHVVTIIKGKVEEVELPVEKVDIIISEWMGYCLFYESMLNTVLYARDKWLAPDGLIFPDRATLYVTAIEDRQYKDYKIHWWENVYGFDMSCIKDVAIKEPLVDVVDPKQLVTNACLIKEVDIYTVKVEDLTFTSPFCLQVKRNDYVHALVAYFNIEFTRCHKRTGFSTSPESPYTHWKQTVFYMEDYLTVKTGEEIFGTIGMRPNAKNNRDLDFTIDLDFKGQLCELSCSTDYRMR

[7] = molecular target: Serine/threonine-protein kinase WNK1 (Homo sapiens) (UniProt Q9H4A3); assay: Inhibition of recombinant human WNK1 (1 to 491 residues) at 10 uM using myelin basic protein as substrate measured after 120 mins in presence of [gamm33P]ATP by scintillation counting method relative to control
[8] = molecular target: Mitogen-activated protein kinase kinase kinase kinase 4 (Homo sapiens) (UniProt O95819); assay: Inhibition of recombinant human MAP4K4 (1 to 328 residues) at 10 uM using RLGRDKYKTLRQIRQ as substrate measured after 40 mins in presence of [gamma33P]ATP by scintillation counting method relative to control
Chain of Mitogen-activated protein kinase kinase kinase kinase 4 (Homo sapiens) (O95819 2-1239 limits assumed): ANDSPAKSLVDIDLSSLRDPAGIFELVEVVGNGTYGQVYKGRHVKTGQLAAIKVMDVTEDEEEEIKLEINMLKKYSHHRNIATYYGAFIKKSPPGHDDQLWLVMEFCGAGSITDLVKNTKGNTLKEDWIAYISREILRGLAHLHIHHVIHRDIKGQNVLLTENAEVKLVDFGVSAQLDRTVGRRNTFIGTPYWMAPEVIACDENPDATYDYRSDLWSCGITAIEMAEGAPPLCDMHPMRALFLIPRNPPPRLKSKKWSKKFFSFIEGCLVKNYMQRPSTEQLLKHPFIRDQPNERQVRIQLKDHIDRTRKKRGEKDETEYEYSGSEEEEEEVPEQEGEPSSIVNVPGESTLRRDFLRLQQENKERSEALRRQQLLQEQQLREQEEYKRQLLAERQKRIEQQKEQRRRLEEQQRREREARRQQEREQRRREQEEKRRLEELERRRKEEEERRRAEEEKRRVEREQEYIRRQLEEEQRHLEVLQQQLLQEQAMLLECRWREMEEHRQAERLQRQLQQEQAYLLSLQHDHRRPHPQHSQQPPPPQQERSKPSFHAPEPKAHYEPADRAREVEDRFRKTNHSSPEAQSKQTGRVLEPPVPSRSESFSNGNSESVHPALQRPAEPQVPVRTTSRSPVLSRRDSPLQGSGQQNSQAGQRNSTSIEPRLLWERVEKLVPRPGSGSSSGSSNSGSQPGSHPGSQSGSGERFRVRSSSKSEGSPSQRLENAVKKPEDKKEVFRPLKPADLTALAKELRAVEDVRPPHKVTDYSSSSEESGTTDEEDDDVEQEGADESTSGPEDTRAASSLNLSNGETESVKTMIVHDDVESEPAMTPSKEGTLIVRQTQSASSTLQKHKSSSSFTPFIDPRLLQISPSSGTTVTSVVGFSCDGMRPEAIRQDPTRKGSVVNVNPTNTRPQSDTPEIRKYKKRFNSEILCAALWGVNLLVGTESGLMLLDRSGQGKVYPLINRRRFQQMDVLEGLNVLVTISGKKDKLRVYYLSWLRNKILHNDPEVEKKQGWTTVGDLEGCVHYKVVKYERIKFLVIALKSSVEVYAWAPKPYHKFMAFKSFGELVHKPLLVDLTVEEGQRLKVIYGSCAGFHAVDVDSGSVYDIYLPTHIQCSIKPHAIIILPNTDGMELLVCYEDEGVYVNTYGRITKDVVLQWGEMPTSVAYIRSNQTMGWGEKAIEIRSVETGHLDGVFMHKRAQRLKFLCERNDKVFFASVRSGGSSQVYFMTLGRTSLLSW

[9] = molecular target: CDC7/Cyclin B1 (Homo sapiens) (UniProt P14635+O00311); assay: Inhibition of full-length recombinant human Cdc7/CyclinB1 at 10 uM using histone H1 as substrate after 120 mins by in presence of [gamma33P]ATP by scintillation counting method relative to control; assay type: protein-complex assay
Chain of CDC7/Cyclin B1 (Homo sapiens) (O00311 whole entry, looked up): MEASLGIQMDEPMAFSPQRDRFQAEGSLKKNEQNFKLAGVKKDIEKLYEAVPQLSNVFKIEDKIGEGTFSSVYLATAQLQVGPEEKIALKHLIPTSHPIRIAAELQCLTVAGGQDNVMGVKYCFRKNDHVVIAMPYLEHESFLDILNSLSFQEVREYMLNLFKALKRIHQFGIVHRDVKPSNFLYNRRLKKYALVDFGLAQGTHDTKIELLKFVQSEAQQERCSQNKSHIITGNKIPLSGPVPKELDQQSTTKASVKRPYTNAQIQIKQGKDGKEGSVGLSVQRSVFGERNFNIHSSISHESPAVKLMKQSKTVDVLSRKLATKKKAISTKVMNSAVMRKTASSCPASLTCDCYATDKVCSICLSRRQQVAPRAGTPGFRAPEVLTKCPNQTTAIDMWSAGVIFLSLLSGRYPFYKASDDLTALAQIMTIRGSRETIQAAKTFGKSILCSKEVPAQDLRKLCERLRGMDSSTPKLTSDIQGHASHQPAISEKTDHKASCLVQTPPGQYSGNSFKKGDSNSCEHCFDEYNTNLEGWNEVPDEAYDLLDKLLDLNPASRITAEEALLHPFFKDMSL
Chain of CDC7/Cyclin B1 (Homo sapiens) (P14635 whole entry, looked up): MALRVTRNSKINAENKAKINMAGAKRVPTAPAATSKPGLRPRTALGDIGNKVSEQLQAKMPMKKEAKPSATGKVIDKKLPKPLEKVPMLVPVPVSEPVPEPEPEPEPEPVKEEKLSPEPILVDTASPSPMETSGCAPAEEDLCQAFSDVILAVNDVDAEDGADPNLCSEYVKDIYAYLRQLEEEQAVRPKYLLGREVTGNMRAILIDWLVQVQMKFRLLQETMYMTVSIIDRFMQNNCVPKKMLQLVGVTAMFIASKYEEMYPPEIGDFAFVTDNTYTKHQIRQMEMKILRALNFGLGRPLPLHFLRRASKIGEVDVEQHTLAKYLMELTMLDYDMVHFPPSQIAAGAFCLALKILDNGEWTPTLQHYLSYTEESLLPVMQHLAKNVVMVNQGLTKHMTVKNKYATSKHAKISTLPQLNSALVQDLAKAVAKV

[10] = molecular target: Serine/threonine-protein kinase NLK (Homo sapiens) (UniProt Q9UBE8); assay: Inhibition of recombinant human NLK (121 to end residues) at 10 uM using myelin basic protein as substrate measured after 40 mins in presence of [gamma33P]ATP by scintillation counting method relative to control
Chain of Serine/threonine-protein kinase NLK (Homo sapiens) (Q9UBE8 whole entry): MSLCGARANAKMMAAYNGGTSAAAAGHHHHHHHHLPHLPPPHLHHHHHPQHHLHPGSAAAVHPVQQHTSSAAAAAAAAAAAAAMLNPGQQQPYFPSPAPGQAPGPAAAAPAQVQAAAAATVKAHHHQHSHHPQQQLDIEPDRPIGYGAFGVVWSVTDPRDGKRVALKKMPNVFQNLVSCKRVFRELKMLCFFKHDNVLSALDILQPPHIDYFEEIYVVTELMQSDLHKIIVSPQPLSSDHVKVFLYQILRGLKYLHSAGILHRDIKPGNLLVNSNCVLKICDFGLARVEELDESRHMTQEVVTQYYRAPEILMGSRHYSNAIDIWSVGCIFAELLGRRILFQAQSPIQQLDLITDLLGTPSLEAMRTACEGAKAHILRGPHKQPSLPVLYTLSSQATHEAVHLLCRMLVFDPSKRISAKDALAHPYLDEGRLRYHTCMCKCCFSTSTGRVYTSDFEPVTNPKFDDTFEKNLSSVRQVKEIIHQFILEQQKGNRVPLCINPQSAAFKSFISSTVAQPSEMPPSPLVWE

[11] = molecular target: PI3-kinase p110-alpha/p85-alpha (Homo sapiens) (UniProt P27986+P42336); assay: Inhibition of full-length recombinant human PI3K (p110a/p85a) at 10 uM using phosphatidylinositol 4,5-bisphosphate as substrate after 40 mins by fluorescence based assay relative to control; assay type: protein-complex assay
Homo sapiens [12] = species on record: Homo sapiens; assay: Inhibition of recombinant human EphB2 A848S/K918E mutant (560 to end residues) using poly (Glu, Tyr) 4:1 as substrate at 10 uM after 40 mins in presence of [gamma-33P]-ATP by scintillation counting relative to control
[13] = molecular target: TGF-beta receptor type-2 (Homo sapiens) (UniProt P37173); assay: Inhibition of recombinant human TGFBR2 (188 to end residues) at 10 uM using myelin basic protein as substrate measured after 120 mins in presence of [gamm33P]ATP by scintillation counting method relative to control
[14] = molecular target: CREB-binding protein (Homo sapiens) (UniProt Q92793); assay: Inhibition of human CBP-BRD at 10 uM relative to control
[15] = molecular target: Activin receptor type-2A (Homo sapiens) (UniProt P27037); assay: Inhibition of recombinant human ACTR2 (162 to end residues) at 10 uM using casein as substrate after 120 mins in presence of [gamma33P]ATP by scintillation counting method relative to control
[16] = molecular target: Platelet-derived growth factor receptor alpha (Homo sapiens) (UniProt P16234); assay: Inhibition of recombinant human PDGFRalpha (550 to end residues) at 10 uM using poly(Glu, Tyr) 4:1 as substrate measured after 40 mins in presence of [gamma33P]ATP by scintillation counting method relative to control
[17] = molecular target: 5'-AMP-activated protein kinase catalytic subunit alpha-2 (Homo sapiens) (UniProt P54646); assay: Inhibition of recombinant full length human AMPKalpha2 at 10 uM using AMARAASAAALARRR as substrate after 40 mins in presence of [gamma33P]ATP by scintillation counting method relative to control
[18] = molecular target: Tyrosine-protein kinase ABL1 (Homo sapiens) (UniProt P00519); assay: Inhibition of human Abl (27 to end residues) at 10 uM using EAIYAAPFAKKK as substrate after 40 mins in presence of [gamma33P]ATP by scintillation counting method relative to control
[19] = molecular target: Mitogen-activated protein kinase kinase kinase 7 (Homo sapiens) (UniProt O43318); assay: Inhibition of recombinant human TAK1 (1 to 303 residues) at 10 uM using casein as substrate measured after 40 mins in presence of [gamma33P]ATP by scintillation counting method relative to control
[20] = molecular target: Tyrosine-protein kinase Fes/Fps (Homo sapiens) (UniProt P07332); assay: Inhibition of recombinant human FES (2 to end residues) at 10 uM using poly(Glu, Tyr) 4:1 as substrate measured after 40 mins in presence of [gamma33P]ATP by scintillation counting method relative to control
[21] = molecular target: Serine/threonine-protein kinase 38-like (Homo sapiens) (UniProt Q9Y2H1); assay: Inhibition of recombinant human NDR2 (83 to end residues) at 10 uM using RSRSRSRSRSRSRSR as substrate measured after 40 mins in presence of [gamma33P]ATP by scintillation counting method relative to control
[22] = molecular target: Serine/threonine-protein kinase PAK 1 (Homo sapiens) (UniProt Q13153); assay: Inhibition of recombinant human PAK1 (150 to end residues) at 10 uM using RRRLSFAEPG as substrate measured after 40 mins in presence of [gamma33P]ATP by scintillation counting method relative to control
Chain of Serine/threonine-protein kinase PAK 1 (Homo sapiens) (Q13153 whole entry): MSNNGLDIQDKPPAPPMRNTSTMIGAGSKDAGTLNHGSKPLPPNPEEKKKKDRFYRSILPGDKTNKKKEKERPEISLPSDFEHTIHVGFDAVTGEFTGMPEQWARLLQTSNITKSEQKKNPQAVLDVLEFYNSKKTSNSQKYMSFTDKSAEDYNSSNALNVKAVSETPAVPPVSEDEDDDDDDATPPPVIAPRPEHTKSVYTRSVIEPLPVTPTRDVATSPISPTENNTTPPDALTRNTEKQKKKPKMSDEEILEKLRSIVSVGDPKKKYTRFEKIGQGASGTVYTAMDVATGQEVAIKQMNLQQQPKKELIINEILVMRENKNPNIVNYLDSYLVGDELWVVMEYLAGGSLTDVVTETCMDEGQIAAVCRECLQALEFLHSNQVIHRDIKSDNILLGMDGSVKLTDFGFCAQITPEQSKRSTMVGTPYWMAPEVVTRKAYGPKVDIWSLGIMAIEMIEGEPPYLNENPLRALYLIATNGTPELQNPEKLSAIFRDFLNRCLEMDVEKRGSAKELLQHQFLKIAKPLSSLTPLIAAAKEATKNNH

[23] = molecular target: Histone acetyltransferase KAT6A (Homo sapiens) (UniProt Q92794); assay: Inhibition of human MOZ at 10 uM relative to control
[24] = molecular target: T1, Transcriptional enhancer factor TEF-3; assay: Binding affinity to N-terminal His6 tagged human TEAD4-YBD (217 to 434 residues) expressed in Escherichia coli C43 (DE3) cells assessed as covalent modification by measuring change in protein mass by mass spectral analysis

## C=CS(=O)(=O)Nc1ccc(Cc2ccc3ccccc3c2)cc1
[1]
  inhibition: -6%
[2]
  inhibition: 91.6%
Homo sapiens [3]
  inhibition: 2%
[4]
  inhibition: 3%
[5]
  inhibition: 7%
[6]
  inhibition: 3%
[7]
  inhibition: -10%
[8]
  inhibition: 7%
[9]
  inhibition: 21%
[10]
  inhibition: 2%
[11]
  inhibition: 16%
Homo sapiens [12]
  inhibition: 4%
[13]
  inhibition: 9%
[14]
  inhibition: 10%
[15]
  inhibition: -5%
[16]
  inhibition: 1%
[17]
  inhibition: 5%
[18]
  inhibition: 7%
[19]
  inhibition: 5%
[20]
  inhibition: 0%
[21]
  inhibition: -6%
[22]
  inhibition: 5%
[23]
  inhibition: 7%
[24]
  Activity: Active
